The results in this text go back to patent US10906929B2, “Phosphoramidate nucleoside derivatives as anticancer agents” (NuCana plc, priority 2016, dated 2021).

For assay [1], the system named is MCF-7 Mammary epithelial adenocarcinoma. As to the kind of experiment: In vitro viability assay, CellTiterGlo. The conditions noted are these: MCF-7, CellTiterGlo, 72 h. It counts as cell-based, human. Summed up: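 Cells were treated for ~72 h with a 9-point, 3.16-fold dilution series, 198 μM to 19.9 nM final, in 0.5% DMSO final, in duplicate. Viability was read by CellTiterGlo luminescence.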
Background: Cellular ATP, detected with luciferase, serves as a proxy for viable cell number.

For the next assay, the system named is L1210. As to the kind of experiment: Cytostatic activity, cell counting (Coulter counter). It counts as cell-based. The following applies: Mus musculus, L1210; uninfected, 48 h proliferation; read-out: IC50 L1210. An excerpt:
(§1) Tumor cell cultures were infected with M. hyorhinis (ATCC 17981) and after two or more passages (to avoid bias by the initial inoculum) successful infection was confirmed using the MycoAlert™ mycoplasma detection kit (Lonza, Basel, Switzerland). Although this assay is only semi-quantitative, a maximal infection was observed 3 to 4 days after subcultivation of the mycoplasma-exposed cells. Chronically infected tumor cell lines are further referred to as Cell line.Hyor. All tumor cell cultures were maintained in Dulbecco's modified Eagle's medium (DMEM) (Invitrogen) supplemented with 10% fetal bovine serum (Biochrom AG, Berlin, Germany), 10 mm HEPES, and 1 mm sodium pyruvate (Invitrogen). Cells were grown at 37° C. in a humidified incubator with a gas phase containing 5% CO2.
(§2) The cytostatic activity of the test compounds was examined in mycoplasma-infected and uninfected cancer cell lines. When assaying the effect of M. hyorhinis infection, monolayer MCF7 and MCF7.Hyor cells were seeded in 48-well microtiter plates (Nunc™, Roskilde, Denmark) at 10,000 cells/well (Corning Inc., Corning, N.Y.) […]. After 24 h, the cells were exposed to different concentrations of test compound and allowed to proliferate for 72 h (to ensure sufficient cell proliferation and mycoplasma growth) after which the cells were trypsinized and counted using a Coulter counter (Analis, Suarlée, Belgium). Suspension cells (L1210, L1210.Hyor, FM3A, and FM3A.Hyor) were seeded in 96-well microtiter plates (Nunc) at 60,000 cells/well in the presence of different concentrations of test compound. The cells were allowed to proliferate for 48 h and then counted using a Coulter counter. The 50% inhibitory concentration (IC50) was defined as the compound concentration required to reduce cell proliferation by 50%.

The test system of another assay is MCF7. The description is as above. It counts as cell-based. The conditions noted are these: Homo sapiens, MCF7; uninfected, 72 h proliferation; read-out: IC50 MCF7.
From the text: as §1, §2

For assay [2], the system named is L1210 cells infected with Mycoplasma hyorhinis (HYOR). As to the kind of experiment: Cytostatic activity in mycoplasma-infected cells. The format is cell-based, mouse.
From the text: as §1, §2

The next assay relates to HL-60. As to the kind of experiment: In vitro cytotoxicity, MTS assay. The format is cell-based. The conditions noted are these: Homo sapiens, 72 h, read-out: Inhibitory concentration (IC50) HL-60. In a few lines:
(§3)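 Cells exposed 72 h at 37° C, 5% CO2 to serial dilutions from 100 μM to 0.02 μM. MTS added for 4 h more, absorbance read at 490 nm. Viability relative to untreated cells; IC50 is the concentration giving 50% loss of viability.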

Another assay concerns KG1. As to the kind of experiment: In vitro cytotoxicity, MTS assay. It counts as cell-based. The conditions noted are these: Homo sapiens, KG-1, 72 h, read-out: Inhibitory concentration (IC50) KG1. Summed up: as §3
A further assay concerns NB4R2. As to the kind of experiment: In vitro cytotoxicity, MTS assay. It counts as cell-based. The following applies: 72 h, read-out: Inhibitory concentration (IC50) NB4R2. In a few lines: as §3
The subject of the next assay is K562. Put plainly: In vitro cytotoxicity, MTS assay. The format is cell-based. The conditions noted are these: Homo sapiens, 72 h, read-out: Inhibitory concentration (IC50) K562. In a few lines:
as §3
On the technique in general: Formazan colour is commonly taken as a measure of viable cells.

The next assay relates to NB4. Put plainly: In vitro cytotoxicity, MTS assay. The format is cell-based. The following applies: Homo sapiens, NB-4, 72 h, read-out: Inhibitory concentration (IC50) NB4. Summed up:
as §3

The next assay deals with U937. Put plainly: In vitro cytotoxicity, MTS assay. The format is cell-based. The following applies: Homo sapiens, U-937, 72 h, read-out: Inhibitory concentration (IC50) U937. Summed up: as §3
The subject of a further assay is KG1a cell line. Put plainly: Annexin V/propidium iodide apoptosis assay. The format is cell-based. The following applies: 72 h, dose required to kill 50% of the cells. As for the experimental part:
Cells of the KG1a cell line were maintained in RPMI medium (Invitrogen, Paisley, UK) supplemented with 100 units/ml penicillin, 100 μg/ml streptomycin and 20% foetal calf serum. Cells were subsequently aliquoted (10^5 cells/100 μl) into 96-well plates and were incubated at 37° C. in a humidified 5% carbon dioxide atmosphere for 72 h in the presence of nucleoside analogues and their respective phosphoramidates at concentrations that were experimentally determined for each series of compounds. In addition, control cultures were carried out to which no drug was added. Cells were subsequently harvested by centrifugation and were analyzed by flow cytometry using the Annexin V assay.
Measurement of in vitro apoptosis. Cultured cells were harvested by centrifugation and then resuspended in 195 μl of calcium-rich buffer. Subsequently, 5 μl of Annexin V (Caltag Medsystems, Botolph Claydon, UK) was added to the cell suspension and cells were incubated in the dark for 10 mins prior to washing. Cells were finally resuspended in 190 μl of calcium-rich buffer together with 10 μl of propidium iodide. Apoptosis was assessed by dual-colour immunofluorescent flow cytometry as described previously. Subsequently LD50 values (the dose required to kill 50% of the cells in a culture) were calculated for each nucleoside analogue and phosphoramidate.
The data obtained in these experiments were evaluated using one way ANOVA. All data was confirmed as Gaussian or a Gaussian approximation using the omnibus K2 test. LD50 values were calculated from the non-linear regression and line of best-fit analysis of the sigmoidal dose-response curves. All statistical analyses were performed using Graphpad Prism 6.0 software (Graphpad Software Inc., San Diego, Calif.).

Usually EC50 stands for the concentration needed to bring the measured effect to its halfway point. With `Nc1nc(Cl)nc2c1ncn2[C@H]1C[C@H](O)[C@@H](CO)O1` [Cladribine, cladribine, reference compound], the EC50 in assay [1] (Homo sapiens, MCF7, read-out: EC50 (μM) Ab) is over 198 µM. In addition, in assay [1], the “Top Inhibition (%)” value is recorded as 36.3%. Also, the IC50 in the assay with L1210 was 0.4 µM; in the assay with MCF7, 0.37 µM; in assay [2] (Mus musculus, L1210, 48 h, read-out: IC50 L1210/HYOR), 3 µM; in the assay with HL-60 it was 0.09 µM; in the assay with KG1, 0.06 µM; in the assay on NB4R2, 0.06 µM. In addition, the IC50 is 0.53 µM in the assay with K562, 0.04 µM with NB4 and 0.02 µM in the assay with U937. The Loss of potency in assay [2] (L1210/HYOR versus L1210) is given as 8-fold. The molecule also registered an LD50 with KG1a cell line of 0.18 μm.
